Experimental data taken from patent US20120028278A1, “CELL LINES EXPRESSING GUANYLATE CYCLASE-C AND METHODS OF USING THEM” (CHROMOCELL CORPORATION, priority 2009, published 2012).
Where a SMILES comes first, the peptide text is derived from it. Bridges are numbered along the chain shown (N, C = ends).

How the values were obtained:
[1] = system: other cell lines; conditions: low concentrations of guanylin, Forte et al., Endocr. 140(4):1800-1806 (1999); cited from earlier work
[2] = target: T1, human GC-C (Homo sapiens, UniProt P25092, F281L); experiment: Direct Cyclic GMP Enzyme Immunoassay Kit, cGMP in the produced GC-C-expressing cell line (guanylin dose-response and comparison with parental cells); assay type: cell-based
T1 construct: expressed in transfected cells; CMV promoter
Procedure: Populations of cells were tested using functional criteria. The Direct Cyclic GMP Enzyme Immunoassay Kit (Cat. 900-014; AssayDesigns, Inc.) was used according to manufacturer's instructions: (http://www.assaydesigns.com/objects/catalog//product/extras/900-014.pdf). Cells were tested at 4 different densities in 96- or 384-well plates and responses were analyzed. The following conditions were used for the GC-C-expressing cell lines of the invention:
(§1) Cells were washed twice with serum-free medium and incubated with 1 mM IBMX for 30 minutes. Desired activators (i.e., guanylin, 0.001-40 μM) were then added to the cells and incubated for 30-40 minutes. Supernatant was removed, and the cells were washed with TBS buffer. […]. This was followed by lysis with 0.1N HCl and a freeze/thaw cycle at −20° C./room temperature. Defrosted lysates (samples were spun in Eppendorf tubes at 10,000 rpm) were centrifuged to pellet cell debris. The cleared supernatant lysate was then transferred to ELISA plates.
The cGMP level in the produced GC-C-expressing cell line treated with 100 nM guanylin was also compared to that of parental cell line control samples not expressing GC-C (not shown) using the Direct Cyclic GMP Enzyme Immunoassay Kit (Cat. 900-014; AssayDesigns, Inc.).
For guanylin dose-response experiments, cells of the produced GC-C-expressing cell line, plated at densities of 20,000, 40,000, 60,000, 80,000, 120,000 and 160,000 cells/well in a 96-well plate, were challenged with increasing concentration of guanylin for 30 minutes (see FIG. 2). […] 140(4):1800-1806 (1999)), indicating the potency of the clone.

[3] = target: T1, human GC-C; experiment: competitive ELISA for detection of cGMP in the produced GC-C-expressing cell line; assay type: cell-based; conditions: 100 nM guanylin; cell lysate from GC-C-expressing cell line; FIG. 1
Procedure: A competitive ELISA for detection of cGMP was used to characterize native GC-C function in the produced GC-C-expressing cell line. Cells expressing GC-C were maintained under standard cell culture conditions in DMEM supplemented with 10% fetal bovine serum, glutamine and HEPES and grown in T175 cm flasks. For the ELISA, the cells were plated into coated 96-well plates (poly-D-lysine).
as §1
All of the following steps were performed at room temperature, unless otherwise indicated. ELISA plates were coated with anti-IgG antibodies in coating buffer (Na-carbonate/bi-carbonate buffer, 0.1 M final, pH 9.6) overnight at 4° C. […] The absorbance was then read at 405 nm on a SAFIRE^2™ plate reader (Tecan).
Maximum absorbance was seen when no cell lysate was used in the ELISA (Control).

[4] = target: human guanylate cyclase-C (GC-C) (human) (UniProt P25092); experiment: cell-based or functional assay
Sequence of human guanylate cyclase-C (GC-C) (human) (P25092 24-1073 F281L limits assumed): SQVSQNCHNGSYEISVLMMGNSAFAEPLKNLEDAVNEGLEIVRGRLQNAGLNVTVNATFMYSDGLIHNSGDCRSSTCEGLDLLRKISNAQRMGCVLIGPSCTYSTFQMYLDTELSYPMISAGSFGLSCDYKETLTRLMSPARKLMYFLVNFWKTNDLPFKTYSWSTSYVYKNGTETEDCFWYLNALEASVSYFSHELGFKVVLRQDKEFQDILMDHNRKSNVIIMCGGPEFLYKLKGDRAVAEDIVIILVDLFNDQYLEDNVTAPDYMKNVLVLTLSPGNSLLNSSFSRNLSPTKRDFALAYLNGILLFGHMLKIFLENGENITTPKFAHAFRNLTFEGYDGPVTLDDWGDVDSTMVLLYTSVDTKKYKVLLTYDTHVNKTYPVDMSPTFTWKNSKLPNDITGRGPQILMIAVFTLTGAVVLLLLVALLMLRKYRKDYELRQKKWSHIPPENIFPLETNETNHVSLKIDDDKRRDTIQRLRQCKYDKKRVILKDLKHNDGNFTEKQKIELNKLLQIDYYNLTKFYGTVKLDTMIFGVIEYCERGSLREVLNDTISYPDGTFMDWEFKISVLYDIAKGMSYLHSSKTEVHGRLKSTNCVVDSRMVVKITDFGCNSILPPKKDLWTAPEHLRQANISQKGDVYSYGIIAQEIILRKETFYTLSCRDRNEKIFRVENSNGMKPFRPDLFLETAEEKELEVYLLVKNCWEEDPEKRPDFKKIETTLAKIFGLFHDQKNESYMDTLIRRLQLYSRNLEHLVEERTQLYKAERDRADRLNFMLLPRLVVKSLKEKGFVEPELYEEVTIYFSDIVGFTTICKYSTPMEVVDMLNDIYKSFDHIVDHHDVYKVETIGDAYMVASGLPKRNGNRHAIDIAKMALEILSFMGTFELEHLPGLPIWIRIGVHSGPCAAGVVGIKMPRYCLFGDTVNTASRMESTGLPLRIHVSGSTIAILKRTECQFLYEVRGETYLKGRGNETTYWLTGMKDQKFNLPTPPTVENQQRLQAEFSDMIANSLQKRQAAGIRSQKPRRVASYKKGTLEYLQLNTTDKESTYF

T1 sequence (P25092 24-1073 F281L): as the sequence (P25092 24-1073 F281L limits assumed) above

| Compound | level of cGMP previously reported [1] | absorbance (corresponding to cGMP levels) vs parental cells not expressing GC-C ([2]; 100 nM guanylin, compared with parental cells treated and untreated with guanylin) | EC50 ([2]; produced GC-C-expressing 293T cell line, guanylin 30 minutes, non-linear regression, GraphPad Prism 5.0) | level of cGMP ([2]; produced GC-C-expressing cell line treated with low concentrations of guanylin) | absorbance (corresponding to cGMP levels) vs control without cell lysate [3] | EC50 of guanylin dose-response, cellular cGMP level (absorbance, Direct Cyclic GMP Enzyme Immunoassay Kit) [4] | level of cGMP in the GC-C-expressing cell line treated with low concentrations of guanylin [4] |
| --- | --- | --- | --- | --- | --- | --- | --- |
| CC[C@H](C)[C@@H]1NC(=O)[C@H](CCC(=O)O)NC(=O)[C@@H](NC(=O)[C@@H](NC(=O)CNC(=O)[C@@H]2CCCN2)[C@@H](C)O)CSSC[C@@H]2NC(=O)[C@H](C)NC(=O)[C@H](C)NC(=O)[C@H](Cc3ccc(O)cc3)NC(=O)[C@H](C)NC(=O)[C@H](CSSC[C@@H](C(=O)O)NC(=O)CNC(=O)[C@H]([C@@H](C)O)NC2=O)NC1=O [guanylin] (H-PGTCEICAYAACTGC-OH; disulfide 4-12, 7-15 (inferred); N-terminus and C-terminus assumed) | 3.5 pmol/mL | greater reduction in absorbance | ~1.1 nM | 6 pmol/mL | Reduction in absorbance |  |  |
| guanylin (peptide) |  |  |  |  |  | 1.1 nM | 6 pmol/mL |
